How the values were obtained:
[1] = tested on: A549 NSCLC Xenograft; experiment: A549 NSCLC xenograft model, efficacy (tumor growth inhibition); assay type: in vivo, mice; conditions: single agent
Excerpt: For implantation in mice, A549 cells were dislodged with trypsin-EDTA, washed with 1×D-PBS, and resuspended in serum-free media. […] Tumors were allowed to establish until they were palpable and of an appropriate tumor volume (based on previous tumorigenicity studies) before initiation of treatment. Animals were randomly assigned to groups according to initial tumor volume, and the day of tumor cell inoculation was considered to be study day 0. […] The solution was then evaporated and lyophilized. […] Efficacy data was graphically represented as the mean tumor volume ±standard error of the mean (SEM). Tumor volumes of treated groups were presented as percentages of tumor volumes of the control groups (%T/C), using the formula: 100×((T-T0)/(C-C0)), where 'T' represented mean tumor volume of a treated group on a specific day during the experiment, 'T0' represented mean tumor volume of the same treated group on the first day of treatment; 'C' represented mean tumor volume of a control group on a specific day during the experiment, and C0' represented mean tumor volume of the same […] 'D' represents the large diameter of the tumor, and 'd' represents the small diameter. In some cases, tumor regression and/or percent change in tumor volume was calculated using the formula: Statistical analysis was determined by the rank sum test (SigmaStat, v.2.0, Jandel Scientific, San Francisco, Calif.).

[2] = A549 NSCLC xenograft model, toxicity (body weight, deaths); conditions: single agent
Excerpt: Female BALB/c nu/nu mice were obtained from Charles River Laboratories (Wilmington, Mass.). The mice were housed in an AALAC approved facility and received standard care in accordance with institutional policy (fully compliant with both NIH and Roche Animal Care and Use Committee guidelines).
Compound II was microprecipitated with an ionic polymer, Eudragit L-100-55, using a solvent extraction method. Eudragit L100-55 (described in USP/NF as “Methacrylic Acid Copolymer”) is an anionic copolymer based on methacrylic acid and ethyl acrylate. The ratio of drug to polymer in the final formulation was 50% w/w Compound II and 50% w/w Eudragit L100-55. For oral administration, the formulated Compound II or pure Eudragit L100-55 (administered to vehicle control groups) was suspended in 0.2% CMC (carboxy-methyl cellulose) solution (Aqualon Hercules, Inc., Parlin, N.J.). The CMC solution was added immediately prior to dosing to animals. Gemzar® (Lilly, Indianapolis, Ind.) was applied to a 40 micron high performance Whatman C-18 column. The column was eluted at 60 ml/min for 50 minutes with water, followed by elution with 40% CH3CN/water until UV clear. The solution was then evaporated and lyophilized.
Weight loss was graphically represented as percent change in mean group body weight, using the formula: […]
where ‘W’ represents mean body weight of the treated group at a particular day, and ‘W0’ represents mean body weight of the same treated group at initiation of treatment.

[3] = tested on: H1299 cells; experiment: Tetrazolium dye (MTT) proliferation assay, H1299; assay type: cell-based; conditions: Homo sapiens, NCI-H1299; MTT assay using H1299 cells
Protocol: H1299 cells were obtained from the National Cancer Institute. A549 cells were purchased from ATCC. The cells were grown in a subconfluent condition to maintain a logarithmic growth phase. The cells were dislodged for passage using trypsin-EDTA (0.05% and 0.53 mM, respectively).
Cellular proliferation was evaluated by the tetrazolium dye assay. Cells from exponentially growing cultures were plated at the appropriate seeding density in the optimal medium to give logarithmic growth over the course of the assay. Plates were incubated overnight at 37° C. in a humidified CO2 atmosphere to allow for recovery from trypsinization before beginning the assay. […] The plates were returned to 37° C. and assayed for proliferation by MTT (3-(4,5-dimethyl-thiazole-2-yl)-2,5-diphenyl-2H-tetrazolium bromide at time points that would allow for at least three population doublings in the untreated control cultures. MTT was added to each well to yield a final concentration of 1 mg/ml and the plates were returned to 37° C. for 2.5 hours. Following incubation, the MTT-containing medium was removed by aspiration and the resulting formazan metabolite was solubilized in 50 μl ethanol. Absorbances were read at a wavelength of 570 nm with a 650 nm reference. Percent inhibition was calculated using the formula: [formula]

For `Cn1cc(C2=C(c3cn(C)c4cc([N+](=O)[O-])ccc34)C(=O)NC2=O)c2ccccc21` [Compound II], the “Tumor Volume (Mean ± SEM) (Day 30)” value ([1]; CII 50 mg/kg PO) was 104 ± 18 mm3, the “% T/C (Day 47)” value ([1]; CII 50 mg/kg PO) was 50% and the “Tumor Volume (Mean ± SEM) (Day 47)” value ([1]; CII 50 mg/kg PO) was 217 ± 32 mm3. The “Tumor Volume (Mean ± SEM) (Day 30)” value ([1]; CII 100 mg/kg PO) was 148 ± 28 mm3, the “% T/C (Day 47)” value ([1]; CII 100 mg/kg PO) was 29% and the “Tumor Volume (Mean ± SEM) (Day 47)” value ([1]; CII 100 mg/kg PO) was 213 ± 35 mm3. The “Tumor Volume (Mean ± SEM) (Day 30)” value ([1]; CII 200 mg/kg PO) was 99 ± 17 mm3, the “% T/C (Day 47)” value ([1]; CII 200 mg/kg PO) was 18% and the “Tumor Volume (Mean ± SEM) (Day 47)” value ([1]; CII 200 mg/kg PO) was 141 ± 21 mm3. The “Drug Related Deaths” value ([2]; CII 50 mg/kg PO) was 0%, the “Drug Related Deaths” value ([2]; CII 100 mg/kg PO) was 0% and the “Drug Related Deaths” value ([2]; CII 200 mg/kg PO) was 0%.
For `Nc1ccn([C@@H]2O[C@H](CO)[C@@H](O)C2(F)F)c(=O)n1` [Gemcitabine, gemcitabine], the “Tumor Volume (Mean ± SEM) (Day 30)” value ([1]; G 30 mg/kg IP) was 97 ± 15 mm3, the “% T/C (Day 47)” value ([1]; G 30 mg/kg IP) was 72% and the “Tumor Volume (Mean ± SEM) (Day 47)” value ([1]; G 30 mg/kg IP) was 210 ± 44 mm3. The “Tumor Volume (Mean ± SEM) (Day 30)” value ([1]; G 60 mg/kg IP) was 111 ± 17 mm3, the “% T/C (Day 47)” value ([1]; G 60 mg/kg IP) was 49% and the “Tumor Volume (Mean ± SEM) (Day 47)” value ([1]; G 60 mg/kg IP) was 188 ± 27 mm3. The “Tumor Volume (Mean ± SEM) (Day 30)” value ([1]; G 120 mg/kg IP) was 98 ± 20 mm3, the “% T/C (Day 47)” value ([1]; G 120 mg/kg IP) was 61% and the “Tumor Volume (Mean ± SEM) (Day 47)” value ([1]; G 120 mg/kg IP) was 193 ± 36 mm3. The “Drug Related Deaths” value ([2]; G 30 mg/kg IP) was 0%, the “Drug Related Deaths” value ([2]; G 60 mg/kg IP) was 0% and the “Drug Related Deaths” value ([2]; G 120 mg/kg IP) was 0%. For the same compound, the IC50 [3] was 3.8 nM and the IC90 [3] was 6 nM.

— patent publication US20030139373A1, “Method for cancer therapy” (priority 2001, published 2003)
